Data: patent publication US10730886B2, “Compound having effect of inhibiting platelet aggregation and salt thereof, and composition for preventing or treating thrombotic diseases, containing same” (SHIN POONG PHARMACEUTICAL CO., LTD., priority 2015, dated 2020)
Where two headings read alike, the source gives them in different places.

Columns and labels:
[1] = tested on: human liver cells (HepG2); assay: Cytotoxicity in human liver cells HepG2 (WST-1); format: cell-based; details: HepG2, 40 mM, control
Method: 5-3. Evaluation of Cytotoxicity of Candidate Substances Using Human Liver Cells
Experiments were conducted to evaluate cytotoxicity in human liver cells (HepG2). HepG2 cells, which are human liver carcinoma cell lines, were cultured in DMEM (Dulbecco's minimum essential medium) supplemented with 10% FBS (fetal bovine serum) and 1% Penicillin/Streptomycin at 37° C. and 5% CO2. The cells were cultured in a 48 well plate at 4×10^4 cells/well for 24 hours and then used in the experiments. The HepG2 cells were treated with the candidate substances (250 μM) for 18 hours, and then the medium was removed and WST-1 was added, followed by shading for 3 hours for reaction. After 3 hours, the supernatant was taken and absorbance was measured at 450 nm. Cell viability was calculated by comparing the absorbance measured after adding WST-1 to HepG2 cells not treated with the candidate substances. Acetaminophen (40 mM) was used as a control.

[2] = tested on: carotid artery shear stress model; assay: Carotid artery shear stress model, amount of thrombus; format: in vivo, Sprague-Dawley rats; details: rat, twice a day for 3 days after operation
Method: Vehicle (0.5% methylcellulose), clopidogrel (8 mg/kg), aspirin (50 mg/kg) or a candidate substance was orally administered to male Sprague-Dawley rats (250 to 300 g). 2 hours after administration, the rats were anesthetized by ketamine/rompun (ketamine/xylazine) cocktail 0.1 ml/100 g. Except for the normal control group, the right cervical skin of the experimental animals was incised to expose the common carotid artery. A surgical tube with a length of 1 mm and an inside diameter of 0.58 mm was inserted into the exposed carotid artery and tied with a single thread. The exposed site and the operation site were treated with an anti-adhesion agent, and then sutured for the animals to recover. After the surgery, vehicle, clopidogrel, aspirin or a candidate substance was orally administered to the rats twice a day for 3 days. On the fourth day, 2 hours after the final administration, urethane (100 mg/300 μl/100 g) was administered intraperitoneally to the rats to induce anesthesia, and the operation site was opened to separate a total of 1 cm of the blood vessel, 5 mm above and 5 mm below the surgical tube. The separated blood vessel was perfused with 0.2 ml of 0.9% saline at 0.3 ml/min to remove the remaining blood, and then maintained in 1 ml of protein lysis buffer (NaOH 2 g, Na2CO3 0.1 g in 500 ml D.W). After collected, the blood vessel thrombus was double-boiled in boiling water together with the protein lysis buffer. 200 μl of the reaction solution (10 ml bicinchoninic acid solution+200 μl 4% aqueous solution of copper sulfate) was added to 10 μl of the heated thrombus, and the mixture was reacted at 37° C. for 30 minutes and quantified with an ELISA reader (562 nm).

Sprague-Dawley rats = assay: Bleeding side effect (tail bleeding time) after single oral administration; format: in vivo; details: rat, tail cut 1 hour after administration
Method: Male Sprague-Dawley rats (250 to 300 g) were fasted overnight and then were orally administered with the candidate substances at each concentration. After 1 hour, the rats were anesthetized by intraperitoneal injection of urethane (1.25 g/kg). The 3 mm portion of the tail tip of the rats was cut and carefully wiped every 30 seconds. Bleeding time was measured in […] until no more blood was drawn, and when the bleeding lasted longer than 30 minutes, the bleeding time was recorded as 30 minutes.

ICR mouse = details: male, in vivo, po, 7 days
Method: One hour after the last administration, the mice were anesthetized by breathing, and the 4 mm portion from the tail tip of the mice was cut. Then, the tail tip of the mice was immersed in a transparent 15-ml tube containing the pre-prepared 37° C. saline. The time when blood was not spread any more and the bleeding stopped was measured.

[3] = tested on: ADP-induced platelet aggregation, Human PRP; assay: ADP-induced platelet aggregation in human PRP (lumi-aggregometer); format: cell-based
Method: To investigate whether the candidate substance has inhibition selectivity for shear-stress-induced platelet aggregation, which is by a physical stimulus, […] experiment was conducted by activating platelets with physiological agonists—i.e., thrombin, collagen and ADP—to study the inhibitory effect of the candidate substance.
Human PRP (598.8 μl) was treated with 1.2 μl of the candidate substance per concentration (25, 100, 250 μM) and reacted at 37° C. for 3 minutes using a thermomixer. Then, PRP (495 μl) was put in the aggregometer cuvette and preincubated for 1 minute, followed by treatment with platelet aggregation-inducing reagent, thrombin (0.6-0.8 U/ml), collagen (2-5 μg/ml), or ADP (adenosine diphosphate, 15-20 μM) at the minimum concentration causing maximum aggregation. The degree of aggregation of the platelets was measured by a turbidity change using a lumi-aggregometer (Chrono-Log Co., USA). The turbidity of the PRP was considered as 0%, and the turbidity of the PPP was considered as 100%. During the measurement, the reaction mixture was continuously stirred at 1,000 rpm with a silicone-coated magnetic stir bar.

[4] = tested on: Human Platelet Rich Plasma (PRP); assay: Shear stress-induced platelet aggregation inhibition in human platelet rich plasma (PRP), cone-plate viscometer; format: cell-based; details: Homo sapiens, Platelet, Table 1 summary bins; concentration and matrix not given; read-out: Inhibitory effect of shear stress-induced platelet aggregation
Method: 1-1. Measurement of Platelet Aggregation Inhibitory Effect Using Human Platelet Rich Plasma (PRP)
Blood was collected from the veins of healthy male volunteers who had not taken any medication for more than 2 weeks. All related studies were conducted under the approval of the Seoul National University Institutional Review Board (IRB No. 1305/001-016). During the whole process of study the use of glass containers or glass pipettes was avoided, and the experiments were performed at room temperature. To separate platelet rich plasma (PRP), the blood was collected with 3.2% sodium citrate as an anticoagulant. The whole blood was centrifuged at 150 g for 15 minutes to obtain the supernatant (PRP), and the residue was centrifuged at 2,000 g for 20 minutes to obtain platelet poor plasma (PPP). The number of platelets of the PRP thus obtained was counted with an optical microscope using a hemacytometer. PRP was diluted with PPP so as to include 3×10^8 platelets per 1 ml, and then used in the experiments. PRP was put on a cone-plate viscometer (RotoVisco 1, Thermo Fischer Scientific, USA), and shear stress was applied to the PRP at 37° C. for 3 minutes at a shear rate of 10,800 s^−1. In order to evaluate candidate substances, prior to the induction of platelet aggregation, 598.8 μl of PRP was treated with 1.2 μl of 25 μM candidate substance and incubated at 37° C. for 3 minutes using a thermomixer. After applying the shear stress, 20 μl of PRP was fixed in 280 μl of a suspension buffer containing 0.5% glutaraldehyde (134 mM NaCl, 2.9 mM KCl, 1.0 mM MgCl2.6H2O, 10.0 mM HEPES, 5.0 mM dextrose, 12.0 mM NaHCO3, 0.34 mM Na2HPO4, 0.3% BSA, pH 7.4). Then, the number of single platelets in the suspension was counted using a hemacytometer. The degree of inhibition by the candidate substance was calculated according to the following formula (1). The degree of inhibition was determined by the method described below. No shear stress-applied group served as a control, and only shear stress-applied group served as positive control. Degree of inhibition (%)=[(1−A/B)×100]/[(1−A/C)×100] Formula 1
A: Number of single platelets in the shear stress-applied sample after treatment with candidate substance
B: Number of single platelets in the control group with no shear stress applied
C: Number of single platelets in the positive control group with only shear stress applied

SMILES | inhibition at 25 µM [4] | other results
CC(=O)Nc1ccc(O)cc1 [Acetaminophen, reference compound] | – | Cell vaibility (%) [1]: 35.3 ± 3.5%
CC(=O)Oc1ccccc1C(=O)O [Aspirin, aspirin, reference compound] | – | Amount of thrombus (mg, Mean ± SEM) ([2]; 50 mg/kg oral): 0.092 ± 0.007 mg; Bleeding time (Sprague-Dawley rats; 25 μM (so in the source)): 9.5 ± 0.8 min; Bleeding time (Sprague-Dawley rats; 100 μM (so in the source)): 15.1 ± 0.8 min; Bleeding time (ICR mouse; 100 mg/kg): 12.3 ± 0.7 min; Bleeding time (min) (ICR mouse; 100 mg/kg): exceeded 12 min; bleeding time delayed, times compared with the control group (ICR mouse; 100 mg/kg): about 7.6 times
COC(=O)[C@H](c1ccccc1Cl)N1CCc2sccc2C1 [Clopidogrel, clopidogrel, reference compound] | – | Amount of thrombus (mg, Mean ± SEM) ([2]; 8 mg/kg oral): 0.067 ± 0.004 mg; Degree of platelet aggregation (%, Mean ± SEM) ([3]; ADP 15-20 μM, compound 40 μM): 18.3 ± 3.4%; platelet aggregation compared with the group treated with ADP only ([3]; positive control, 40 μM): platelet aggregation was inhibited; Bleeding time (Sprague-Dawley rats; 2.5 μM (so in the source)): 14.3 ± 1.6 min; Bleeding time (Sprague-Dawley rats; 25 μM (so in the source)): 26.8 ± 1.6 min; Bleeding time (ICR mouse; 15 mg/kg): 35.4 ± 2.9 min; Bleeding time (min) (ICR mouse; 15 mg/kg): exceeded 35 min; bleeding time delayed, times compared with the control group (ICR mouse; 15 mg/kg): about 22 times
O=C(c1ccc(O)c(O)c1)N1CCC(c2noc3ccc(F)cc23)CC1 [Example 2, (3,4-Dihydroxyphenyl)(4-(5-fluorobenzo[d]isoxazol-3-yl)piperidin-1-yl)methanone] | 20 to 30% | –
O=C(NCC1CN(Cc2ccc(F)cc2)CCO1)c1ccc(O)c(O)c1 (stereo not shown) [Example 3, N-((4-(4-Fluorobenzyl)morpholin-2-yl)methyl)-3,4-dihydroxybenzamide] | ≥ 30% | –
O=C(NC1CCSC1=O)c1ccc(O)c(O)c1 (stereo not shown) [Example 4, 3,4-Dihydroxy-N-(2-oxotetrahydrothiophen-3-yl)benzamide] | ≥ 30% | –
O=C(NCCCCCCCCCNC(=O)c1ccc(O)c(O)c1)c1ccc(O)c(O)c1 [Example 5, N,N′-(Nonan-1,9-diyl)bis(3,4-dihydroxybenzamide)] | 20 to 30% | –
O=C(c1ccc(O)c(O)c1)N1CCC(OC(c2ccc(Cl)cc2)c2ccccn2)CC1 (stereo not shown) [Example 6, (4-((4-Chlorophenyl)(pyridin-2-yl)methoxy)piperidin-1-yl)(3,4-dihydroxyphenyl)methanone] | 20 to 30% | –
O=C(c1ccc(O)c(O)c1)N1CCC(O[C@@H](c2ccc(Cl)cc2)c2ccccn2)CC1 [Example 7, (S)-(4-((4-Chlorophenyl)(pyridin-2-yl)methoxy)piperidin-1-yl)(3,4-dihydroxyphenyl)methanone] | 20 to 30% | –
COC(=O)[C@H](Cc1c[nH]c2ccccc12)NC(=O)c1ccc(O)c(O)c1 [Example 8, (S)-Methyl-2-(3,4-dihydroxybenzamido)-3-(1H-indol-3-yl)propanoate] | 20 to 30% | –
CCCc1nn(C)c(C(N)=O)c1NC(=O)c1ccc(O)c(O)c1 [Example 9, 4-(3,4-Dihydroxybenzamido)-1-methyl-3-propyl-1H-pyrazole-5-carboxamide] | 20 to 30% | –
Cc1occc(=O)c1OC(=O)c1ccc(O)c(O)c1 [Example 10, 2-Methyl-4-oxo-4H-pyran-3-yl 3,4-dihydroxybenzoate] | 20 to 30% | –
O=C(c1ccc(O)c(O)c1)N1CCN(c2ccccc2)CC1 [Example 11, (3,4-Dihydroxyphenyl)(4-phenylpiperazin-1-yl)methanone] | ≥ 30% | –
C#Cc1cccc(NC(=O)c2ccc(O)c(OC)c2)c1 [Example 16, N-(3-Ethynylphenyl)-4-hydroxy-3-methoxybenzamide] | ≥ 30% | –
CNC(=O)c1cc(Oc2ccc(NC(=O)c3ccc(O)c(OC)c3)cc2)ccn1 [Example 17, 4-(4-(4-Hydroxy-3-methoxybenzamido)phenoxy)-N-methylpicolinamide] | 20 to 30% | –
COc1cc(C(=O)N2CCC(OC(c3ccc(Cl)cc3)c3ccccn3)CC2)ccc1O (stereo not shown) [Example 18] | ≥ 30% | –
COc1cc(C(=O)NCc2c(CO)cnc(C)c2O)ccc1O [Example 19, 4-Hydroxy-N-((3-hydroxy-5-(hydroxymethyl)-2-methylpyridin-4-yl)methyl)-3-methoxybenzamide] | 20 to 30% | –
O=C(c1cc(O)ccc1O)N1CCC(OC(c2ccc(Cl)cc2)c2ccccn2)CC1 (stereo not shown) [Example 21, (4-((4-Chlorophenyl)(pyridin-2-yl)methoxy)piperidin-1-yl)(2,5-dihydroxyphenyl)methanone] | 20 to 30% | –
O=C(NCC1CN(Cc2ccc(F)cc2)CCO1)c1cc(O)ccc1O (stereo not shown) [Example 22, N-((4-(4-Fluorobenzyl)morpholin-2-yl)methyl)-2,5-dihydroxybenzamide] | ≥ 30% | –
COc1ccc(CCNC(=O)c2cc(O)ccc2O)cc1OC [Example 24, N-(3,4-Dimethoxyphenethyl)-2,5-dihydroxybenzamide] | 20 to 30% | –
O=C(NCCc1cccs1)c1cc(O)ccc1O [Example 25, 2,5-Dihydroxy-N-(2-(thiophen-2-yl)ethyl)benzamide] | 20 to 30% | –
O=C(NC1CCSC1=O)c1cc(O)ccc1O (stereo not shown) [Example 26, 2,5-Dihydroxy-N-(2-oxotetrahydrothiophen-3-yl)benzamide] | 20 to 30% | –
